≈ marks a conversion by molar mass, not a printed value.
Key:
[1] = Aqueous solubility at pH about 6.8; format: physicochemical; conditions: 25 °C, pH 6.8, aqueous buffer, kinetic from dmso stock, single value, procedure not stated; read-out: Solubility at pH 6.8
[2] = test system: rats; test: In vivo functional observational battery (FOB); conditions: for Behavior: 1 mg/kg
[3] = In vivo functional observational battery (FOB); conditions: male, Crl:CD(SD), rat, in vivo, po
[4] = 3 mg/kg, 0.5 h after administration
[5] = 3 mg/kg, 1 h after administration
[6] = 3 mg/kg, 2 h after administration
[7] = 3 mg/kg, 4 h after administration
[8] = 3 mg/kg, 6 h after administration
[9] = 300 mg/kg, 0.5 h after administration
[10] = 300 mg/kg, 1 h after administration
[11] = 300 mg/kg, 2 h after administration
[12] = 300 mg/kg, 4 h after administration
[13] = 300 mg/kg, 6 h after administration

## CNC(=O)Cn1c(=O)n(C2CCN([C@@H]3Cc4cccc5cccc3c45)CC2)c2ccccc21 [Compound W-212393]
[1]
  solubility at 16 h: 42 µM (≈ 18.5 µg/mL)
[2]; 0.5 h after administration
  Behavior: N
[2]; 1 h after administration
  Behavior: N
[2]; 2 h after administration
  Behavior: N
[2]; 4 h after administration
  Behavior: N
[2]; 6 h after administration
  Behavior: N
[2]; [4]
  Biting behavior: N
  Hvpoactivity: N
  Jumping: N
[2]; [5]
  Biting behavior: 1 of 6
  Hvpoactivity: 6 of 6
  Jumping: 3 of 6
[2]; [6]
  Biting behavior: N
  Hvpoactivity: N
  Jumping: 2 of 6
[2]; [7]
  Biting behavior: N
  Hvpoactivity: N
  Jumping: N
[2]; [8]
  Biting behavior: N
  Hvpoactivity: N
  Jumping: N
[2]; [9]
  Abdominal position/side lying position: 6 of 6
  Biting behavior: 3 of 6
  Decreased muscle tone: 6 of 6
  Jumping: 2 of 6
  Loss of auricular reflex/righting reflex: 6 of 6
  Loss of flexed or extension reflex: 6 of 6
  Loss of pain reaction: 6 of 6
  Respiratory irregularity: 6 of 6
[2]; [10]
  Abdominal position/side lying position: 6 of 6
  Biting behavior: N
  Decreased muscle tone: 6 of 6
  Jumping: N
  Loss of auricular reflex/righting reflex: 6 of 6
  Loss of flexed or extension reflex: 6 of 6
  Loss of pain reaction: 6 of 6
  Respiratory irregularity: 6 of 6
[2]; [11]
  Abdominal position/side lying position: 6 of 6
  Biting behavior: N
  Decreased muscle tone: 6 of 6
  Jumping: N
  Loss of auricular reflex/righting reflex: 6 of 6
  Loss of flexed or extension reflex: 6 of 6
  Loss of pain reaction: 6 of 6
  Respiratory irregularity: 6 of 6
[2]; [12]
  Abdominal position/side lying position: 6 of 6
  Biting behavior: N
  Decreased muscle tone: 6 of 6
  Jumping: N
  Loss of auricular reflex/righting reflex: 6 of 6
  Loss of flexed or extension reflex: 6 of 6
  Loss of pain reaction: 6 of 6
  Respiratory irregularity: 6 of 6
[2]; [13]
  Abdominal position/side lying position: 6 of 6
  Biting behavior: N
  Decreased muscle tone: 6 of 6
  Jumping: N
  Loss of auricular reflex/righting reflex: 6 of 6
  Loss of flexed or extension reflex: 6 of 6
  Loss of pain reaction: 6 of 6
  Respiratory irregularity: 6 of 6
[3]
  NOAEL: 1 mg/kg

Reference: patent publication US10974081B2, “Treatment and prevention of sleep disorders” (Purdue Pharma L.P., priority 2016, dated 2021)
